According to article PMC6403271, “Characterization, mechanism of action and optimization of activity of a novel peptide-peptoid hybrid against bacterial pathogens involved in canine skin infections” (Scientific Reports, 2019):
Read-outs that look alike come from different tables or passages of the source. Square brackets hold non-standard residues; d marks the D form. Peptide text beside a SMILES is read from it. N(1-naphthylmethyl)Gly = O=C(O)CNCc1cccc2ccccc12; 1Nal = N[C@@H](Cc1cccc2ccccc12)C(=O)O; 2Nal = N[C@@H](Cc1ccc2ccccc2c1)C(=O)O; d1Nal = N[C@H](Cc1cccc2ccccc12)C(=O)O; d2Nal = N[C@H](Cc1ccc2ccccc2c1)C(=O)O; Nle = CCCC[C@H](N)C(=O)O; Nphe = O=C(O)CNCc1ccccc1; NBuGly = CCCCNCC(=O)O

Experiments:
[1] = test system: MRSP C22963; type: cell-based, Staphylococcus pseudintermedius
Procedure: (§1) Activity of B1 was tested on 50P. aeruginosa isolates and 57S. pseudintermedius isolates (including 7 MRSP) that had been isolated in the diagnostic laboratory Sund Vet Diagnostik (University of Copenhagen) from various infections in dogs between 2009 and 2011. Representative MRSP (C22963), MSSA, and P. aeruginosa (26314) were used for testing the first set of B1 analogues.
(§2) MIC determination was performed by broth microdilution according to the Clinical and Laboratory Standard Institute (CLSI, M31-A3, 2008)[62]. In brief, each bacterial strain was diluted to concentration of 5 × 10^5 CFU/mL in Mueller Hinton broth II (MHB II) media (Oxoid) and added to a two-fold serial dilution of peptides and peptide-peptoid hybrids concentrations ranging from 1 to 64 µg/ml in 96-well plates (Nunc Internationals, Rochester, NY). The MICs were determined as a lowest concentration showing no visible growth after incubation for 18 hours at 37 °C. Experiments were performed in triplicates on two different days.

[2] = test system: MSSA (ATCC 29213); type: cell-based, Staphylococcus aureus
Procedure: as §1, §2

[3] = test system: P. aeruginosa (26314); type: cell-based, Pseudomonas aeruginosa
Procedure: Activity of B1 was tested on […]. aeruginosa isolates and […]. pseudintermedius isolates (including 7 MRSP) that had been isolated in the diagnostic laboratory Sund Vet Diagnostik (University of Copenhagen) from various infections in dogs between 2009 and 2011. Representative […], and P. aeruginosa (26314) were used for testing the first set of B1 analogues. For antibacterial spectrum the following strains were used: Corynebacterium auriscanis, 31551, (54 C6, dog, ear, 2013); Enterococcus faecalis, 27404, (17 C7, dog, wound, 2011); Enterococcus faecium, 30951, (24 C1, dog, ear, 2013); Streptococcus canis, 26740-1, (14 H1, dog, ear, 2010); Staphylococcus aureus, 27266, (16 G9, dog, skin, 2010); Staphylococcus aureus, 27266, (16 G9, dog, skin, 2010); Staphylococcus pseudintermedius 22963, (3 B9, dog, 2007). Acinetobacter baumannii, 27065, (16 D1, dog, wound, 2010); E. coli, 30235, 23 A6, dog, wound, 2012; Klebsiella pneumoniae, 26233, (11 H5, dog, wound, 2010); Pasteurella canis, 31096, (24 C8, dog, skin, 2013); Proteus mirabilis, 25178, (9 A4, dog, ear, 2009); Pseudomonas aeruginosa 26314, 12 C5, dog, urine, 2010). MIC determination was performed by broth microdilution according to the Clinical and Laboratory Standard Institute (CLSI, […]-A3, 2008)[62]. In brief, each bacterial strain was diluted to concentration of 5 × 10^5 CFU/mL in Mueller Hinton broth II (MHB II) media (Oxoid) and added to a two-fold serial dilution of peptides and peptide-peptoid hybrids concentrations ranging from 1 to 64 μg/ml in 96-well plates (Nunc Internationals, Rochester, NY). The MICs were determined as a lowest concentration showing no visible growth after incubation for 18 hours at 37 °C. Experiments were performed in triplicates on two different days.

[4] = test system: human red blood cells; type: cell-based; details: for EC50: red cells of human, 1 h
Procedure: (§3) Briefly, two-fold serial dilutions (2.35 to 150 μM) of compounds in phosphate buffer saline (PBS) were mixed with equal volume of 0.5% v/v suspension of fresh human red blood cells (RBC) in the same buffer. After 1 h incubation at 37 °C, plates were centrifuged and aliquots of the supernatants were transferred to clear 96-well plates. Absorbance at 414 nm was measured and normalized using a negative (PBS, 0%) and a positive (melittin, 100%) control. The EC10 and EC50 are concentrations at which 10% and 50% of RBC were lysed, respectively, as interpolated graphically by the y-axis intersection of the plotted data.

[5] = type: cell-based, human; details: human
Procedure: as §3

Row | Compound | Minimum Inhibitory Concentration MRSP C22963 ([1]; Table 1) [µg/mL] | Minimum Inhibitory Concentration MSSA (ATCC 29213) ([2]; Table 1) [µg/mL] | Minimum Inhibitory Concentration P. aeruginosa (26314) ([3]; Table 1) [µg/mL] | Haemolysis EC10 [4] [µM] | Haemolysis %H 150(µM) ([4]; 150 µM) [%] | Minimum Inhibitory Concentration MRSP C22963 ([1]; 18 h) [µg/mL] | Minimum Inhibitory Concentration MSSA (ATCC 29213) ([2]; ATCC 29213, 18 h) [µg/mL] | Minimum Inhibitory Concentration P. aeruginosa (26314) ([3]; 26314, 18 h) [µg/mL] | hemolysis at 1 h, 150 µM [5] [%] | EC50 [4] [µM]
1 | Lys-Lys-Lys-Leu-(2-Nal)Ala-Tyr-(2-Nal)Ala [Compound 22] | 16 | >64 | >64 | 117 | 14 |  |  |  |  | 
2 | CCCCN(CC(=O)N[C@@H](CCCCN)C(=O)N[C@@H](CCCCN)C(N)=O)C(=O)[C@H](CCCCN)NC(=O)CN(Cc1cccc2ccccc12)C(=O)CN(Cc1ccccc1)C(=O)CNCc1cccc2ccccc12 [Compound 5, (N1-Nal)Gly-(NPhe)Gly-(N1-Nal)Gly-Lys-(NBu)Gly-Lys-Lys] (H-[N(1-naphthylmethyl)Gly][Nphe][N(1-naphthylmethyl)Gly]K[NBuGly]KK-NH2; N-terminus assumed) |  |  |  |  |  | 8 | 16 | 32 | < 8 | 
3 | CC(C)C[C@@H](NC(=O)[C@H](CCCCN)NC(=O)[C@@H](Cc1cccc2ccccc12)NC(=O)[C@@H](Cc1ccccc1)NC(=O)[C@H](N)Cc1cccc2ccccc12)C(=O)N[C@@H](CCCCN)C(=O)N[C@@H](CCCCN)C(N)=O [Compound 20, (1-Nal)ala-phe-(1-Nal)ala-Lys-leu-Lys-Lys] (H-[d1Nal][dF][d1Nal]K[dL]KK-NH2; N-terminus assumed) |  |  |  |  |  | 16 | 32 to 64 | >64 | < 8 | 
4 | CC(C)C[C@@H](NC(=O)[C@H](CCCCN)NC(=O)[C@H](CCCCN)NC(=O)[C@@H](N)CCCCN)C(=O)N[C@H](Cc1cccc2ccccc12)C(=O)N[C@H](Cc1ccc(O)cc1)C(=O)N[C@H](Cc1cccc2ccccc12)C(N)=O [Compound 25, Lys-Lys-Lys-leu-(1-Nal)ala-tyr-(1-Nal)ala] (H-KKK[dL][d1Nal][dY][d1Nal]-NH2; N-terminus assumed) |  |  | 8 | 38 |  | 2 to 4 |  |  | 53 | 138
5 | CC(C)C[C@@H](NC(=O)[C@H](CCCCN)NC(=O)[C@H](CCCCN)NC(=O)[C@@H](N)CCCCN)C(=O)N[C@H](Cc1ccc2ccccc2c1)C(=O)N[C@H](Cc1ccc(O)cc1)C(=O)N[C@H](Cc1ccc2ccccc2c1)C(N)=O [Compound 28, Lys-Lys-Lys-leu-(2-Nal)ala-tyr-(2-Nal)ala] (H-KKK[dL][d2Nal][dY][d2Nal]-NH2; N-terminus assumed) |  |  |  | 6 |  | 2 to 4 |  | 32 | 64 | 50
6 | CC(C)C[C@H](NC(=O)[C@H](CCCCN)NC(=O)[C@H](Cc1ccc2ccccc2c1)NC(=O)[C@H](Cc1ccccc1)NC(=O)[C@@H](N)Cc1ccc2ccccc2c1)C(=O)N[C@@H](CCCCN)C(=O)N[C@@H](CCCCN)C(N)=O [Compound 11, (2-Nal)Ala-Phe -(2-Nal)Ala-Lys-Leu-Lys-Lys] (H-[2Nal]F[2Nal]KLKK-NH2; N-terminus assumed) |  |  |  |  |  | 4 to 8 | 16 | 64 | < 8 | 
7 | CC(C)C[C@H](NC(=O)[C@H](Cc1cccc2ccccc12)NC(=O)[C@H](Cc1ccccc1)NC(=O)[C@@H](N)Cc1cccc2ccccc12)C(=O)N[C@@H](CCCCN)C(=O)N[C@@H](CCCCN)C(=O)N[C@@H](CCCCN)C(N)=O [Compound 12, (1-Nal)Ala-Phe-(1-Nal)Ala-Leu-Lys-Lys-Lys] (H-[1Nal]F[1Nal]LKKK-NH2; N-terminus assumed) |  |  |  |  |  | 16 | 32 | >64 | < 8 | 
8 | CC(C)C[C@@H](NC(=O)[C@H](CCCCN)NC(=O)[C@@H](Cc1ccc2ccccc2c1)NC(=O)[C@@H](Cc1ccccc1)NC(=O)[C@H](N)Cc1ccc2ccccc2c1)C(=O)N[C@@H](CCCCN)C(=O)N[C@@H](CCCCN)C(N)=O [Compound 18, (2-Nal)ala-phe-(2-Nal)ala-Lys-leu-Lys-Lys] (H-[d2Nal][dF][d2Nal]K[dL]KK-NH2; N-terminus assumed) |  |  |  |  |  | 16 | 32 to 64 | >64 | < 8 | 
9 | CC(C)C[C@@H](NC(=O)[C@@H](Cc1cccc2ccccc12)NC(=O)[C@@H](Cc1ccccc1)NC(=O)[C@H](N)Cc1cccc2ccccc12)C(=O)N[C@@H](CCCCN)C(=O)N[C@@H](CCCCN)C(=O)N[C@@H](CCCCN)C(N)=O [Compound 21, (1-Nal)ala-phe-(1-Nal)ala-leu-Lys-Lys-Lys] (H-[d1Nal][dF][d1Nal][dL]KKK-NH2; N-terminus assumed) |  |  |  |  |  | 16 | 32 | 32 | < 8 | 
10 | CC(C)C[C@H](NC(=O)[C@H](CCCCN)NC(=O)[C@H](Cc1cccc2ccccc12)NC(=O)[C@H](Cc1ccccc1)NC(=O)[C@@H](N)Cc1cccc2ccccc12)C(=O)N[C@@H](CCCCN)C(=O)N[C@@H](CCCCN)C(N)=O [Compound 10, (1-Nal)Ala-Phe-(1-Nal)Ala-Lys-Leu-Lys-Lys] (H-[1Nal]F[1Nal]KLKK-NH2; N-terminus assumed) |  |  |  |  |  | 8 to 16 | 16 to 32 | 64 | < 8 | 
11 | CCCCN(CC(=O)N(CC(=O)N(CC(=O)N(CC(N)=O)Cc1cccc2ccccc12)Cc1ccccc1)Cc1cccc2ccccc12)C(=O)[C@H](CCCCN)NC(=O)[C@H](CCCCN)NC(=O)[C@@H](N)CCCCN [Compound 3, Lys-Lys-Lys-(NBu)Gly-(N1-Nal)Gly-(NPhe)Gly-(N1-Nal)Gly] (H-KKK[NBuGly][N(1-naphthylmethyl)Gly][Nphe][N(1-naphthylmethyl)Gly]-NH2; N-terminus assumed) |  |  |  |  |  | 4 | 16 | 32 | < 8 | 
12 | CCCC[C@H](NC(=O)[C@H](CCCCN)NC(=O)[C@H](CCCCN)NC(=O)[C@@H](N)CCCCN)C(=O)N[C@@H](Cc1ccc2ccccc2c1)C(=O)N[C@@H](Cc1ccc(O)cc1)C(=O)N[C@@H](Cc1ccc2ccccc2c1)C(N)=O [Compound 27, Lys-Lys-Lys-Nle-(2-Nal)Ala-Tyr-(2-Nal)Ala] (H-KKK[Nle][2Nal]Y[2Nal]-NH2; N-terminus assumed) |  |  |  | 3 |  | 2 to 4 |  | 64 | 54 | 56
